Laboratory results as given in patent US20110178104A1, “Anti-Heparin Compounds” (POLYMEDIX INC., priority 2010, published 2011).
≈ marks a conversion by molar mass, not a printed value.

Assays:
[1] = test system: tinzaparin; test: FXa amidolytic assay (Example 10), tinzaparin; conditions: read-out: Tinzap FXa EC50; tinzaparin 0.1 ug/ml; human antithrombin, bovine Factor Xa
Procedure: (§2) Two μl of test agent are added (range between 0.01 and 23 ug/ml) and incubated for 5 minutes at 23° C. Bovine Factor Xa was added to a final concentration of 0.636 nkat/mL and incubated for a further 10 minutes at 23° C.

[2] = test system: UFH; test: FXa amidolytic assay (Example 10), UFH; conditions: read-out: Heparin FXa uM EC50; UFH 0.03 units/mL; human antithrombin, bovine Factor Xa
Procedure: as §2

[3] = test system: enoxaparin; test: FXa amidolytic assay (Example 10), enoxaparin; conditions: read-out: Enox FXa EC50; enoxaparin 0.1 ug/ml; human antithrombin, bovine Factor Xa
Procedure: as §2

[4] = test system: fondaparinux; test: FXa amidolytic assay (Example 10), fondaparinux; conditions: for EC50: read-out: Fondap FXa EC50, fondaparinux 0.02 μg/mL, human antithrombin, bovine Factor Xa
Procedure: as §2

[5] = test system: Unfractionated heparin; test: aPTT clotting assay, UFH 0.4 U/mL in plasma (Example 10); assay type: biochemical; conditions: unfractionated heparin 0.4 U/mL in plasma; aPTT clotting
Procedure: aPTT clotting Assay: Unfractionated heparin was mixed with plasma at a final concentration of 0.4 U/mL (or concentration which increases aPTT time to between 120 and 300 seconds). […] The ACL Elite Hemostasis analyzer (Beckman Coulter™) was used to add aPTT reagent (HemosIL SynthASil) to supplemented plasma. Clotting was initiated by addition of CaCl2 and time to clot was recorded.

[6] = test system: isolated human erythrocytes; test: cells; assay type: cell-based; conditions: human RBC, 1 hour at 37° C.; for EC50: Homo sapiens, Erythrocyte, 1 h, read-out: Hemolysis EC50
Summary of the method: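 Pooled human red cells, washed and diluted from a 0.22% stock suspension in TBS pH 7.4, were shaken with two-fold dilutions (1000 to 0.48 µg/ml) for 1 h at 37 °C. Released hemoglobin in the supernatant was read at OD405. EC50 came from a four-parameter logistic fit, with melittin as positive control.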

[7] = Cytotoxicity colorimetric assay, HepG2; assay type: cell-based, human; parameters: Cytotoxicity HepG2, percent printed in parentheses after the concentration: concentration or dose not given beside the values; conditions: human, HepG2 cells, one hour in serum-free media
Procedure: (§1) This assay measures the bioreduction of a novel tetrazolium compound to a soluble formazan product by viable cells. HepG2 cells were seeded in 96 well plates at 3×10^4 cells/well in MEM medium with 10% fetal bovine serum (FBS) 24 hours prior to use. NIH/3T3 cells were seeded in 96 well plates at 2×10^4 cells/well in DMEM medium with 10% bovine calf serum (BCS) 24 hours prior to use. Cell monolayers were rinsed in serum-free media and incubated for one hour with test agent in serum-free media. After incubation, the media was replaced with serum supplemented media and live cells were measured using the Cell Titer 96 Aqueous […] Assay kit (Promega, Madison, Wis.). EC50 values were determined using a four parameter logistic equation: Y=Bottom+(Top-Bottom)/(1+10̂((LogEC50-X)*HillSlope)).

[8] = test system: HepG2 cells; test: Cytotoxicity colorimetric assay, HepG2; assay type: cell-based, human; parameters: Cytotoxicity HepG2, percent printed in parentheses after the concentration: concentration or dose not given beside the values; conditions: for Cytotoxicity HepG2, percent printed in parentheses after the concentration: at the concentration given
Procedure: as §1

[9] = Cytotoxicity colorimetric assay, NIH/3T3; assay type: cell-based, mouse; conditions: mouse, NIH/3T3 cells, one hour in serum-free media
Procedure: as §1

[10] = test system: NIH/3T3 cells; test: Cytotoxicity colorimetric assay, NIH/3T3; assay type: cell-based, mouse; conditions: for Cytotoxicity 3T3, percent printed in parentheses after the concentration: at the concentration given
Procedure: as §1

[11] = test system: enoxaparin; test: In vivo neutralization of enoxaparin in the rat; conditions: compared with protamine
Procedure: Compounds were tested for their ability to neutralize enoxaparin coagulation inhibition in rats. Male Sprague-Dawley rats were used in this study (Charles River Laboratories). They were ten-weeks-old at the start of the study and their weights ranged from 319-362 g. Enoxaparin (2 mg/kg) was administered by IV injection to groups of six rats. After 3 min, saline, protamine or a test compound was administered by IV injection. Blood was collected before dosing with enoxaparin, and at 1, 3, 10, 30 and 60 min after dosing with the standard and test compounds. All treatments were dosed in a volume of 1 mL/kg. Blood was collected via the orbital sinus from three rats per group. At each time point, 1 mL of blood was collected from each animal into a single tube. The blood was analyzed using an AMEX Destiny Plus Coagulation Analyzer for activated partial thromboplastin time (APTT) and anti-Factor Xa (low-molecular weight).

COc1ccc(NC(=O)[C@H](CCCCN)NC(=O)c2cc(NC(=O)[C@H](CCCCN)NC(=O)c3cc(NC(=O)[C@H](CCCCN)NC(=O)c4cc(NC(=O)[C@@H](N)Cc5c[nH]c6ccccc56)ccc4OC)ccc3OC)ccc2OC)cc1C(N)=O [Compound 246]
EC50 [1]: 0.368 µM
EC50 [2]: 0.11 µM
EC50 [3]: 0.514 µM
EC50 [4]: 2.54 µM
EC50 [5]: 2.37 µM
EC50 [6]: > 1000 µg/mL
EC50 at 1 h [7]: 60 µg/mL (≈ 50.7 µM)
Cytotoxicity HepG2, percent printed in parentheses after the concentration [8]: 80%

COc1ccc(NC(=O)[C@H](CCCCN)NC(=O)c2cc(NC(=O)[C@H](CCCCN)NC(=O)c3cc(NC(=O)[C@H](CCCCN)NC(=O)c4cc(NC(=O)[C@@H](N)CCCCN)ccc4OC)ccc3OC)ccc2OC)cc1C(=O)N[C@@H](Cc1ccccc1)C(=O)O [Compound 263]
EC50 [1]: 0.352 µM
EC50 [2]: 0.179 µM
EC50 [3]: 0.376 µM
EC50 [4]: 1.6 µM
EC50 [5]: 1.25 µM
EC50 [6]: > 1000 µg/mL
EC50 at 1 h [7]: 255 µg/mL (≈ 200 µM)
Cytotoxicity HepG2, percent printed in parentheses after the concentration [8]: 60%

COc1ccc(NC(=O)[C@H](CCCCN)NC(=O)c2cc(NC(=O)[C@H](CCCCN)NC(=O)c3cc(NC(=O)[C@H](CCCCN)NC(=O)c4cc(NC(=O)[C@@H](N)CCCCN)ccc4OC)ccc3OC)ccc2OC)cc1C(=O)Nc1cccc(C(=O)O)c1 [Compound 275]
EC50 [1]: 0.113 µM
EC50 [3]: 0.134 µM
EC50 [4]: 0.579 µM
EC50 [5]: 1.72 µM
EC50 at 1 h [7]: 1000 µg/mL (≈ 802 µM)
Cytotoxicity HepG2, percent printed in parentheses after the concentration [8]: 50%

COc1ccc(NC(=O)[C@@H](CCCNC(=N)N)NC(=O)c2cc(NC(=O)[C@@H](CCCNC(=N)N)NC(=O)c3cc(NC(=O)[C@@H](CCCNC(=N)N)NC(=O)c4cc(NC(=O)[C@H](N)CCCNC(=N)N)ccc4OC)ccc3OC)ccc2OCC(=O)O)cc1C(N)=O [Compound 281]
EC50 [1]: 0.111 µM
EC50 [2]: 0.108 µM
EC50 [3]: 0.129 µM
EC50 [4]: 0.441 µM
EC50 [5]: 1.81 µM
EC50 [6]: > 1000 µg/mL
EC50 at 1 h [7]: 1000 µg/mL (≈ 780 µM)
Cytotoxicity HepG2, percent printed in parentheses after the concentration [8]: 50%

COc1ccc(NC(=O)[C@H](CCCNC(=N)N)NC(=O)c2cc(NC(=O)[C@H](CCCNC(=N)N)NC(=O)c3cc(NC(=O)[C@H](CCCNC(=N)N)NC(=O)c4cc(NC(=O)[C@@H](N)CCCNC(=N)N)ccc4OC)ccc3OC)ccc2OCC(=O)O)cc1C(N)=O [Compound 287]
EC50 [1]: 0.108 µM
EC50 [3]: 0.114 µM
EC50 [4]: 0.402 µM
EC50 at 1 h [9]: 1000 µg/mL (≈ 780 µM)
Cytotoxicity 3T3, percent printed in parentheses after the concentration [10]: 50%
EC50 [5]: 1.98 µM
Hemolysis EC50 [6]: no significant decrease
EC50 at 1 h [7]: 1000 µg/mL (≈ 780 µM)
Cytotoxicity HepG2, percent printed in parentheses after the concentration [8]: 30%

COc1ccc(NC(=O)[C@@H](CCCNC(=N)N)NC(=O)c2cc(NC(=O)[C@@H](CCCNC(=N)N)NC(=O)c3cc(NC(=O)[C@@H](CCCNC(=N)N)NC(=O)c4cc(NC(C)=O)ccc4OC)ccc3OC)ccc2OC)cc1C(=O)N[C@H](Cc1ccc(O)cc1)C(=O)O [Compound 297]
EC50 [1]: 0.318 µM
EC50 [2]: 0.215 µM
EC50 [3]: 0.293 µM
EC50 [4]: 0.225 µM
EC50 [5]: 7.12 µM
EC50 [6]: > 1000 µg/mL
EC50 at 1 h [7]: 300 µg/mL (≈ 233 µM)
Cytotoxicity HepG2, percent printed in parentheses after the concentration [8]: 60%

COc1ccc(NC(=O)[C@@H](CCCNC(=N)N)NC(=O)c2cc(NC(=O)[C@@H](CCCNC(=N)N)NC(=O)c3cc(NC(=O)[C@@H](CCCNC(=N)N)NC(=O)c4cc(NC(C)=O)ccc4OC)ccc3OC)ccc2OC)cc1C(=O)N[C@H](Cc1c[nH]c2ccccc12)C(=O)O [Compound 304]
EC50 [1]: 0.257 µM
EC50 [2]: 0.242 µM
EC50 [3]: 0.256 µM
EC50 [4]: 0.209 µM
EC50 [5]: > 10 µM
EC50 [6]: ~500 µg/mL (≈ 381 µM)
Cytotoxicity HepG2, percent printed in parentheses after the concentration [8]: 50%

COc1ccc(NC(=O)[C@H](CCCNC(=N)N)NC(=O)c2cc(NC(=O)[C@H](CCCNC(=N)N)NC(=O)c3cc(NC(=O)[C@H](CCCNC(=N)N)NC(=O)c4cc(NC(=O)[C@@H](N)CCCNC(=N)N)ccc4OC)ccc3OC)ccc2OC)cc1C(=O)N[C@@H](Cc1c[nH]c2ccccc12)C(=O)O [Compound 309]
EC50 [1]: 0.137 µM
EC50 [2]: 0.301 µM
EC50 [3]: 0.131 µM
EC50 [4]: 0.12 µM
EC50 at 1 h [9]: 1000 µg/mL (≈ 701 µM)
Cytotoxicity 3T3, percent printed in parentheses after the concentration [10]: 50%
EC50 [5]: 2.27 µM
EC50 [6]: ~100 µg/mL (≈ 70.1 µM)
EC50 at 1 h [7]: 1000 µg/mL (≈ 701 µM)
Cytotoxicity HepG2, percent printed in parentheses after the concentration [8]: 50%

COC(=O)c1cccc(C(=O)N[C@@H](CCCCN)C(=O)Nc2ccc(OC)c(C(=O)N[C@@H](CCCCN)C(=O)Nc3ccc(OC)c(C(=O)N[C@@H](CCCCN)C(=O)Nc4ccc(OC)c(C(=O)N[C@@H](CCCCN)C(=O)Nc5ccc(OC)c(C(N)=O)c5)c4)c3)c2)c1 [Compound 340]
EC50 [1]: 0.115 µM
EC50 [2]: 0.292 µM
EC50 [3]: 0.119 µM
EC50 [4]: 0.208 µM
EC50 at 1 h [9]: 1000 µg/mL (≈ 776 µM)
Cytotoxicity 3T3, percent printed in parentheses after the concentration [10]: 60%
EC50 [5]: 0.72 µM
EC50 at 1 h [7]: 1000 µg/mL (≈ 776 µM)
Cytotoxicity HepG2, percent printed in parentheses after the concentration [8]: 60%

COc1ccc(NC(=O)[C@H](CCCCN)NC(=O)c2cc(NC(=O)[C@H](CCCCN)NC(=O)c3cc(NC(=O)[C@H](CCCCN)NC(=O)c4cc(NC(=O)[C@@H](N)CCCCN)ccc4OC)ccc3OC)ccc2OCC(=O)O)cc1C(=O)N[C@@H](Cc1c[nH]c2ccccc12)C(N)=O [Compound 348]
EC50 [1]: 0.067 µM
EC50 [2]: 0.153 µM
EC50 [3]: 0.12 µM
in vivo efficacy versus LMWH by anti-factor Xa activity (summary) [11]: superior to protamine
Potent LMWH-antagonists with superior anti-fondaparinux activity (summary) [4]: superior anti-fondaparinux activity
EC50 [4]: 0.263 µM
EC50 at 1 h [9]: > 1000 µg/mL
EC50 [5]: 2.4 µM
EC50 [6]: > 1000 µg/mL
EC50 at 1 h [7]: > 1000 µg/mL

COc1cc(OC)c(C(=O)N[C@H]2CC[C@@H](NC(=O)c3cc(C(=O)NCCN(C)C)c(OCCCCCN)cc3OCCCCCN)CC2)cc1C(=O)N[C@H]1CC[C@@H](NC(=O)c2cc(C(=O)NCCN(C)C)c(OCCCCCN)cc2OCCCCCN)CC1 [Compound 363]
EC50 [1]: 0.113 µM
EC50 [2]: 0.134 µM
EC50 [3]: 0.067 µM
in vivo efficacy versus LMWH by anti-factor Xa activity (summary) [11]: superior to protamine
Potent LMWH-antagonists with superior anti-fondaparinux activity (summary) [4]: superior anti-fondaparinux activity
EC50 [4]: 1.06 µM
EC50 at 1 h [9]: 500 µg/mL (≈ 397 µM)
EC50 [5]: 1.03 µM
EC50 [6]: > 1000 µg/mL
EC50 at 1 h [7]: > 1000 µg/mL

COc1cc(OC)c(C(=O)N[C@H]2CC[C@@H](NC(=O)c3ccc(OCCCCCN)cc3OCCCCCN)CC2)cc1C(=O)N[C@H]1CC[C@@H](NC(=O)c2ccc(OCCCCCN)cc2OCCCCCN)CC1 [Compound 369]
EC50 [1]: 0.176 µM
EC50 [2]: 0.411 µM
EC50 [3]: 0.143 µM
in vivo efficacy versus LMWH by anti-factor Xa activity (summary) [11]: superior to protamine
EC50 [4]: 3.87 µM
EC50 at 1 h [9]: 100 µg/mL (≈ 97 µM)
EC50 [5]: 0.35 µM
EC50 [6]: > 1000 µg/mL
EC50 at 1 h [7]: 280 µg/mL (≈ 271 µM)

protamine sulfate [reference compound]
Cytotoxicity 3T3 EC50 ([10]; one hour in serum-free media): >1000 µg/mL
Hemolysis EC50 [6]: >1000 µg/mL
Cytotoxicity HepG2 EC50 ([8]; one hour in serum-free media): >1000 µg/mL
